{
  "source": "patent US11931327B2",
  "about": "“Drug for retinal degenerative disease associated with photoreceptor degeneration” (Daiichi Sankyo Company, Limited, priority 2017, dated 2024)",
  "key": {"[1]": {"tested_on": "pathological zebrafish 2: Tg (rho: NTR-NanoLuc, my17: DsRed2) crossed with Tg (rho: hRHO (Q344X), omp: EGFP)", "experiment": "Rod-cell regeneration effect in retinitis pigmentosa model, quantitative evaluation by NanoLuc luminescence", "type": "in vivo", "conditions": "N=8 per concentration; Dunnett's test; FIG. 7", "description": "Pathological model zebrafish, in which rod-cell regeneration can be quantitatively evaluated, were newly prepared using zebrafish known as a retinitis pigmentosa model. The effect of compounds was quantitatively verified in accordance with the following procedure.\n1) Quantitative evaluation of rod-cell regeneration was carried out by zebrafish (pathological zebrafish 2) obtained by crossing transgenic Tg (rho: NTR-NanoLuc, my17: DsRed2) and Tg (rho: hRHO (Q344X), omp: EGFP).\nFertilized eggs were collected.\nA screening test was repeated 8 times (N=8) at each concentration.\n2) After shaking for one hour using BIO-Mixer, the luminescence from NanoLuc (registered trademark) was measured by use of EnVision."}, "[2]": {"tested_on": "transgenic zebrafish Tg (rho: NTR-NanoLuc, my17: DsRed2)", "experiment": "animal or person", "excerpt": "First, the present inventors constructed a model for evaluating induction of rod cell regeneration. […] Transgenic zebrafish Tg (rho: NTR-NanoLuc, my17: DsRed2), in which a fluorescent protein, DsRed2, which is cardiac-tissue specifically expressed by cardiomyocyte-specific my17 promoter, can be simply detected by using dsRed2 as a marker under a fluorescence stereomicroscope. In the transgenic zebrafish, in addition to cardiac tissue specific expression of DsRed2, a reductase, i.e., nitroreductase (NTR), and a photoprotein, i.e., NanoLuc fusion protein (NTR-NanoLuc), are expressed by a rod-cell specific rho promoter, in a rod-cell specific manner. […] However, if, a prodrug, metronidazole, is added, non-toxic metronidazole is converted to a toxic radical by NTR. […] After rod cells are ablated by treatment with metronidazole, the transgenic zebrafish were washed with rearing water to remove the toxic radical. […] In the transgenic zebrafish, rod cells can be quantitatively determined by measuring the amount of luminescence derived from rod-cell-specific NanoLuc expression. After the rod cells are ablated, the transgenic zebrafish are exposed to a test compound. The activity of the test compound to induce rod-cell regeneration can be quantitatively evaluated by measuring the amount of luminescence derived from NanoLuc and specific to rod cells.\n1) On the day before collection of eggs, a pair of male and female zebrafish, i.e., a transgenic fish Tg (rho: NTR-NanoLuc, my17: DsRed2) and a wild type, were placed in a tank for mating and isolated by a divider.\n2) The next morning (8:00-11:00), the divider was removed to allow them to mate with each other. Fertilized eggs were collected. In the evening (16:00-18:00) of the same day, only normally developed fertilized eggs were screened and raised in a plate for growth.\n3) Day 3 after fertilization, juvenile fish were transferred to rearing water, which contained 10 mM metronidazole (Sigma-Aldrich, Japan) and 1% DMSO (Wako Pure Chemical Industries Ltd.), (prepared by dissolving 60 mg of instant ocean (Napco Limited (Japan)) in 1 L of distilled water), and raised in dark conditions for 24 hours. In this manner, ablation was specifically applied to the rod cells of the juvenile fish. In contrast, non-ablated juvenile fish, which were to be used as a control, were transferred to a tank containing rearing water, which contained a 1% DMSO solution, and raised.\n5) Ablated juvenile fish of 4 days after fertilization were washed well with Egg water and dispensed in wells of the assay plate containing a compound together with 100 μL of Egg water, such that 2 juvenile fish individuals were present per well.\n6) After the juvenile fish were raised for 2 days, […] of Egg water was removed and ethyl 3-aminobenzoate methanesulfonate (Sigma-Aldrich Japan; 0.4 mg/mL, 10 μL) was added to euthanize the fish.\n7) Nano-Glo (registered trademark) Luciferase assay Substrate (Promega Corporation) was added to Nano-Glo (registered trademark) Luciferase assay buffer (Promega Corporation) in a ratio of 1:50 and 100 μL of the resultant solution was added to each of the wells.\n8) Shaking was carried out by use of BIO-Mixer (Biotech Japan Co., Ltd.) for one hour and luminescence of NanoLuc (registered trademark) was measured by use of EnVision (PerkinElmer Co., Ltd., Japan).\nIndividual concentration groups were compared to the DMSO control group by the Dunnett's test."}, "[3]": {"tested_on": "Pathological zebrafish 1: Tg (rho: EGFP) crossed with Tg (rho: hRHO (Q344X), omp: EGFP)", "experiment": "Rod-cell regeneration effect in retinitis pigmentosa model, EGFP observed by confocal laser microscope", "type": "in vivo", "conditions": "1 μM; fish raised 2 days with compound; FIG. 6", "description": "Pathological model fish, in which rod-cell regeneration can be observed, were prepared using zebrafish known as a retinitis pigmentosa model. The effect of a compound was confirmed in accordance with the following procedure. As the compound to be evaluated, TTNPB (Sigma-Aldrich, Cat. No. T3757-10MG), was used.\n1) To prepare a pathological model, in which rod-cell regeneration can be observed, zebrafish Tg (rho: EGFP) (Hamaoka T1, Takechi M, Chinen A et al., Visualization of rod photoreceptor development using GFP-transgenic zebrafish. Genesis. 2002; 34 (3): 215-220.; used as a reporter fish of rod cells) were crossed with zebrafish Tg (rho: hRHO (Q344X), omp: EGFP), which is a name under another nomenclature system of a retinitis pigmentosa model, i.e., zebrafish RH1: hRhodopsin (Q344X) (Nakao T, Tsujikawa M, Notomi S, Ikeda Y, Nishida K., “The role of mislocalized phototransduction in photoreceptor cell death of retinitis pigmentosa.”, PLoS One., 2012; 7 (4): e32472). The zebrafish obtained were specified as zebrafish (Pathological zebrafish 1). Control zebrafish (non-pathological zebrafish) were obtained by crossing zebrafish Tg (rho: EGFP) with wild-type zebrafish. […]\nLuminescence of EGFP specifically expressed in rod cells was observed by a confocal laser microscope in the following procedure. […]"}},
  "data": [
    {"smiles": "C/C(=C\\c1ccc(C(=O)O)cc1)c1ccc2c(c1)C(C)(C)CCC2(C)C", "note": "[TTNPB, 4-[(E)-2-(5,6,7,8-tetrahydro-5,5,8,8-tetramethyl-2-naphthalenyl)-1-propenyl]benzoic acid]", "values": [
      {"measurement": "regeneration of rod cells in the retinitis pigmentosa model (luminescence, words)", "setting": "[1]", "result": "statistically significant regeneration of rod cells in a dose dependent manner"},
      {"measurement": "rod-cell regeneration induction activity compared to the DMSO control", "setting": "[2]; Examples 3 and 4, TTNPB 0.3, 1, 3, 10 and 30 μM, N=4, RA and BMS493 N=8, Dunnett's test", "result": "statistically significant rod-cell regeneration induction activity at all concentrations"},
      {"measurement": "concentration at which the medicinal effect already reached saturation", "setting": "[2]; minimum concentration tested, range 0.3-30 μM", "result": "≤ 0.3", "unit": "µM"},
      {"measurement": "Activation (%)", "setting": "[2]; screening, 2.5 μM, relative to average of DMSO control = 100", "result": "≥ 150", "unit": "%"},
      {"measurement": "number of rod cells compared to pathological fish untreated with drug", "setting": "[3]", "result": "Recovery in the number of rod cells was confirmed"}
    ]}
  ]
}
